In ChEMBL document CHEMBL3774345, “Synthesis of new diarylamides with pyrimidinyl pyridine scaffold and evaluation of their anti-proliferative effect on cancer cell lines” (Bioorg Med Chem Lett, 2016):

Key:
[1] = Cytotoxicity against human OVCAR8 cells assessed as growth inhibition at 10 uM after 24 hrs by SRB assay; type: functional; conditions: OVCAR-8, 24 h, read-out: GI
[2] = Cytotoxicity against human OVCAR5 cells assessed as cell growth at 10^-8 M after 24 hrs by SRB assay; type: functional; conditions: OVCAR-5, 24 h, read-out: Activity
[3] = tested on: A498; experiment: Cytotoxicity against human A498 cells assessed as cell growth at 10^-8 M after 24 hrs by SRB assay; type: functional; conditions: A498, 24 h, read-out: Activity
[4] = Cytotoxicity against human RXF393 cells assessed as cell growth at 10^-8 M after 24 hrs by SRB assay; type: functional; conditions: RXF 393, 24 h, read-out: Activity
[5] = tested on: T47D; experiment: Cytotoxicity against human T47D cells assessed as cell growth at 10^-8 M after 24 hrs by SRB assay; type: functional; conditions: read-out: Activity
[6] = tested on: A549; experiment: Cytotoxicity against human A549 cells assessed as cell growth at 10^-7 M after 24 hrs by SRB assay; type: functional; conditions: A549, 24 h, read-out: Activity
[7] = tested on: NCI-H322M; experiment: Cytotoxicity against human NCI-H322M cells assessed as cell growth at 10^-7 M after 24 hrs by SRB assay; type: functional; conditions: read-out: Activity
[8] = Cytotoxicity against human HOP62 cells assessed as cell growth at 10^-4 M after 24 hrs by SRB assay; type: functional; conditions: HOP-62, 24 h, read-out: Activity
[9] = Cytotoxicity against human SW620 cells assessed as cell growth at 10^-7 M after 24 hrs by SRB assay; type: functional; conditions: SW-620, 24 h, read-out: Activity
[10] = tested on: NCI-H23; experiment: Cytotoxicity against human NCI-H23 cells after 24 hrs by SRB assay; type: functional; conditions: NCI-H23, 24 h
[11] = Cytotoxicity against human HCT116 cells after 24 hrs by SRB assay; type: functional; conditions: HCT-116, 24 h
[12] = Cytotoxicity against human SW620 cells after 24 hrs by SRB assay; type: functional; conditions: SW-620, 24 h
[13] = tested on: NCI-H460; experiment: Cytotoxicity against human NCI-H460 cells assessed as cell growth at 10^-4 M after 24 hrs by SRB assay; type: functional; conditions: NCI-H460, 24 h, read-out: Activity
[14] = tested on: NCI-H522; experiment: Cytotoxicity against human NCI-H522 cells assessed as cell growth at 10^-4 M after 24 hrs by SRB assay; type: functional; conditions: NCI-H522, 24 h, read-out: Activity
[15] = Cytotoxicity against human SF268 cells assessed as cell growth at 10^-4 M after 24 hrs by SRB assay; type: functional; conditions: SF-268, 24 h, read-out: Activity
[16] = tested on: SN12C; experiment: Cytotoxicity against human SN12C cells assessed as cell growth at 10^-7 M after 24 hrs by SRB assay; type: functional; conditions: read-out: Activity
[17] = Cytotoxicity against human UO31 cells assessed as cell growth at 10^-7 M after 24 hrs by SRB assay; type: functional; conditions: UO-31, 24 h, read-out: Activity
[18] = Cytotoxicity against human PC3 cells assessed as cell growth at 10^-7 M after 24 hrs by SRB assay; type: functional; conditions: PC-3, 24 h, read-out: Activity
[19] = Cytotoxicity against human IGROV1 cells assessed as cell growth at 10^-4 M after 24 hrs by SRB assay; type: functional; conditions: IGROV-1, 24 h, read-out: Activity
[20] = Cytotoxicity against human OVCAR4 cells assessed as cell growth at 10^-4 M after 24 hrs by SRB assay; type: functional; conditions: OVCAR-4, 24 h, read-out: Activity
[21] = Cytotoxicity against human SKOV3 cells assessed as cell growth at 10^-4 M after 24 hrs by SRB assay; type: functional; conditions: SK-OV-3, 24 h, read-out: Activity
[22] = Cytotoxicity against human PC3 cells assessed as cell growth at 10^-4 M after 24 hrs by SRB assay; type: functional; conditions: PC-3, 24 h, read-out: Activity
[23] = Cytotoxicity against human SF295 cells assessed as cell growth at 10^-6 M after 24 hrs by SRB assay; type: functional; conditions: SF-295, 24 h, read-out: Activity
[24] = Cytotoxicity against human SF539 cells assessed as cell growth at 10^-6 M after 24 hrs by SRB assay; type: functional; conditions: SF-539, 24 h, read-out: Activity
[25] = Cytotoxicity against human UACC62 cells assessed as cell growth at 10^-6 M after 24 hrs by SRB assay; type: functional; conditions: UACC-62, 24 h, read-out: Activity
[26] = tested on: A498; experiment: Cytotoxicity against human A498 cells assessed as cell growth at 10^-6 M after 24 hrs by SRB assay; type: functional; conditions: A498, 24 h, read-out: Activity
[27] = tested on: 786-0; experiment: Cytotoxicity against human 786-0 cells after 24 hrs by SRB assay; type: functional, cell-based; conditions: 786-0, 24 h
[28] = Cytotoxicity against human PC3 cells after 24 hrs by SRB assay; type: functional; conditions: PC-3, 24 h
[29] = tested on: CCRF-CEM; experiment: Cytotoxicity against human CCRF-CEM cells after 24 hrs by SRB assay; type: functional
[30] = Cytotoxicity against human SW620 cells assessed as cell growth at 10^-8 M after 24 hrs by SRB assay; type: functional; conditions: SW-620, 24 h, read-out: Activity
[31] = Cytotoxicity against human SNB19 cells assessed as cell growth at 10^-8 M after 24 hrs by SRB assay; type: functional; conditions: SNB-19, 24 h, read-out: Activity
[32] = tested on: SK-MEL-28; experiment: Cytotoxicity against human SK-MEL-28 cells assessed as cell growth at 10^-8 M after 24 hrs by SRB assay; type: functional; conditions: SK-MEL-28, 24 h, read-out: Activity
[33] = Cytotoxicity against human SW620 cells assessed as cell growth at 10^-5 M after 24 hrs by SRB assay; type: functional; conditions: SW-620, 24 h, read-out: Activity
[34] = tested on: Malme-3M; experiment: Cytotoxicity against human MALME-3M cells assessed as cell growth at 10^-5 M after 24 hrs by SRB assay; type: functional; conditions: read-out: Activity
[35] = Cytotoxicity against human BT549 cells assessed as cell growth at 10^-5 M after 24 hrs by SRB assay; type: functional; conditions: BT-549, 24 h, read-out: Activity
[36] = read-out: LC50 (the source's name)
[37] = read-out: pLC50 (the source's name) (converted)

## COCCCNc1nc(NC(=O)c2cc(OC)cc(OC)c2)cc(-c2cccnc2)n1
[1]
  inhibition of growth at 10 µM: 20.7%

## O=C(Nc1cc(-c2cccnc2)nc(NCCCN2CCOCC2)n1)c1cc(Br)cc(C(F)(F)F)c1
[2]
  growth at 0.01 µM: 92%
[3]
  growth at 0.01 µM: 91%
[4]
  growth at 0.01 µM: 99%
[5]
  growth at 0.01 µM: 91%
[6]
  growth at 0.1 µM: 109%
[7]
  growth at 0.1 µM: 107%
[8]
  growth at 100 µM: -97%
[9]
  growth at 0.1 µM: 96%
[10]; read-out: GI50
  GI50: 3.55 µM
[10]; [36]
  CC50: 46.1 µM
[10]; read-out: TGI
  TGI: 15 µM
[10]; read-out: pGI50 (converted)
  GI50: 3.55 µM
[10]; [37]
  CC50: 45.7 µM
[10]; read-out: pTGI (converted)
  TGI: 15.1 µM
[11]; read-out: GI50
  GI50: 2.09 µM
[11]; [36]
  CC50: 13.7 µM
[11]; read-out: TGI
  TGI: 4.81 µM
[11]; read-out: pGI50 (converted)
  GI50: 2.09 µM
[11]; [37]
  CC50: 13.8 µM
[11]; read-out: pTGI (converted)
  TGI: 4.79 µM
[12]; read-out: GI50
  GI50: 2.25 µM
[12]; [36]
  CC50: 20.1 µM
[12]; read-out: TGI
  TGI: 5.48 µM
[12]; read-out: pGI50 (converted)
  GI50: 2.24 µM
[12]; [37]
  CC50: 20 µM
[12]; read-out: pTGI (converted)
  TGI: 5.62 µM
[13]
  growth at 100 µM: -75%
[14]
  growth at 100 µM: -82%
[15]
  growth at 100 µM: -88%
[16]
  growth at 0.1 µM: 98%
[17]
  growth at 0.1 µM: 90%
[18]
  growth at 0.1 µM: 95%
[19]
  growth at 100 µM: -72%
[20]
  growth at 100 µM: -95%
[21]
  growth at 100 µM: -99%
[22]
  growth at 100 µM: -93%
[23]
  growth at 1 µM: 97%
[24]
  growth at 1 µM: 85%
[25]
  growth at 1 µM: 90%
[26]
  growth at 1 µM: 92%
[27]
  IC50: 1.55 µM
[27]; read-out: GI50
  GI50: 1.55 µM
[27]; [36]
  CC50: 6.47 µM
[27]; read-out: TGI
  TGI: 3.17 µM
[27]; read-out: pGI50 (converted)
  GI50: 1.55 µM
[27]; [37]
  CC50: 6.46 µM
[27]; read-out: pTGI (converted)
  TGI: 3.16 µM
[28]; read-out: GI50
  GI50: 4.03 µM
[28]; [36]
  CC50: 42.7 µM
[28]; read-out: TGI
  TGI: 15.7 µM
[28]; read-out: pGI50 (converted)
  GI50: 4.07 µM
[28]; [37]
  CC50: 42.7 µM
[28]; read-out: pTGI (converted)
  TGI: 15.8 µM
[29]; read-out: GI50
  GI50: 3.54 µM
[29]; [36]
  CC50: 93.4 µM
[29]; read-out: TGI
  TGI: 12.9 µM
[29]; read-out: pGI50 (converted)
  GI50: 3.55 µM
[29]; [37]
  CC50: 93.3 µM
[29]; read-out: pTGI (converted)
  TGI: 12.9 µM
[30]
  growth at 0.01 µM: 98%
[31]
  growth at 0.01 µM: 97%
[32]
  growth at 0.01 µM: 92%
[33]
  growth at 10 µM: -34%
[34]
  growth at 10 µM: -72%
[35]
  growth at 10 µM: 19%
